Laboratory results reported in ChEMBL document CHEMBL1201862, “PubChem BioAssay data set” (2004).
The source made the active and inactive calls.

Columns and labels:
[1] = biological target: T1, Microphthalmia-associated transcription factor (Homo sapiens, UniProt O75030); assay: reducers of TRPM1 reporter luminescence, concentration series – cell-based, SK-MEL-5, cherry-picked, set 3, MITF inhibitor project, dose response (AID 493073); type: functional;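 also: SK-MEL-5 melanoma cells with luciferase driven by the MITF target TRPM1 promoter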
T1 sequence (O75030 whole entry): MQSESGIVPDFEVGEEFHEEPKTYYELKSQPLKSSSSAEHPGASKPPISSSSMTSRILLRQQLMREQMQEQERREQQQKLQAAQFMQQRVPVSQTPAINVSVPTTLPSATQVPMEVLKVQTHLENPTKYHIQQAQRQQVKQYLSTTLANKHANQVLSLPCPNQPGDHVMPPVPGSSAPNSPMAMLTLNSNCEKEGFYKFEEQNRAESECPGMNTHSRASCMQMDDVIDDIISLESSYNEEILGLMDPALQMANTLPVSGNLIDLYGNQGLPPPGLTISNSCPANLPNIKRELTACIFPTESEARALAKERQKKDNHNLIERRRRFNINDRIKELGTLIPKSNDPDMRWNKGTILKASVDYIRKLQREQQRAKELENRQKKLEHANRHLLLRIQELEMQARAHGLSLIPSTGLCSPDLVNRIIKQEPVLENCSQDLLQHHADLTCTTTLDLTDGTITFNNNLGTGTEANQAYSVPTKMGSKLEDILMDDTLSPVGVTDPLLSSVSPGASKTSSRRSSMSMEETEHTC

[2] = biological target: Neurotensin receptor type 1 (Homo sapiens, UniProt P30989); type: functional;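 also: Image-based confirmatory dose-response assay measuring agonist activity at NTR1; NTR1-expressing U2OS osteosarcoma cells imaged for beta-arrestin GFP spot formation; agonist potency where compounds increase beta-arrestin recruitment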
Neurotensin receptor type 1, sequence (P30989 whole entry): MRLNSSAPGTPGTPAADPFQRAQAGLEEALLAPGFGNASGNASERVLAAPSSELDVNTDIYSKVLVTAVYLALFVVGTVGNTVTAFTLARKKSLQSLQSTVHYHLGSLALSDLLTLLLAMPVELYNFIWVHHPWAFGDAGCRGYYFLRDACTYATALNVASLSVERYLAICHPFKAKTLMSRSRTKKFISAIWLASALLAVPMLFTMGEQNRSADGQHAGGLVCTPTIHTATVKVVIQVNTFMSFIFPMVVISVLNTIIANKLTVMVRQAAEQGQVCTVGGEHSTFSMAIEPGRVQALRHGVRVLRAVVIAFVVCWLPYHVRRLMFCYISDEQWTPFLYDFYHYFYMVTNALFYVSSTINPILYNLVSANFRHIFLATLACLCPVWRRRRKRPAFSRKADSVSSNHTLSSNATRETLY

[3] = HEK-293T cell viability reduction – luminescence, B-cell screen hits, cytotoxicity control for BCR NF-kB inhibitor project, dose response (AID 489021); type: functional, cell-based;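 also: HEK-293T cells carrying an NF-kB luciferase reporter; cells exposed to compound for about 14 hours before viability readout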
[4] = viability of uninfected HEp-2 cells – cell-based, HTS, cytotoxicity control for RSV inhibitor project, dose response (AID 2410); type: functional; conditions: human respiratory syncytial virus
Cytochrome P450 1A2 = biological target: T2, Cytochrome P450 1A2 (Homo sapiens, UniProt P05177);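 also: PubChem cytochrome P450 panel assay, CYP1A2 panel member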
T2 sequence (P05177 whole entry): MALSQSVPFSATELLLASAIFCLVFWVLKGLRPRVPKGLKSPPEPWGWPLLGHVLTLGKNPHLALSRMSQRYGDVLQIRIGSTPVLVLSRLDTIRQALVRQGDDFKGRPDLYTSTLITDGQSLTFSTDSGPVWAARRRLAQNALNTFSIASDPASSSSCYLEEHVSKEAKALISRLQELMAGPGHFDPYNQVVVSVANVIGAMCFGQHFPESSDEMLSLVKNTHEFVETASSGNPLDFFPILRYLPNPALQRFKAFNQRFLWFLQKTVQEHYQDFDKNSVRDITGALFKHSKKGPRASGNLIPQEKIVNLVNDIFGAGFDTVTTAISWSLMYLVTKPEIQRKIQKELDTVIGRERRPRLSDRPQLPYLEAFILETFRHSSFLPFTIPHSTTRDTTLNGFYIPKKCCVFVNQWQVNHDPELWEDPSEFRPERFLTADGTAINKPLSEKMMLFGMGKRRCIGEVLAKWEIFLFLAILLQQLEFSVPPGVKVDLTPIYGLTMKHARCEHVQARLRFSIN

Trypsin = Trypsin (Sus scrofa, UniProt P00761); assay: trypsin protease activity blockade – biochemical, quenched peptide fluorescence, cherry-pick, selectivity assay for Rce1 protease inhibitor project, dose response (AID 488789)
Trypsin, sequence (P00761 whole entry): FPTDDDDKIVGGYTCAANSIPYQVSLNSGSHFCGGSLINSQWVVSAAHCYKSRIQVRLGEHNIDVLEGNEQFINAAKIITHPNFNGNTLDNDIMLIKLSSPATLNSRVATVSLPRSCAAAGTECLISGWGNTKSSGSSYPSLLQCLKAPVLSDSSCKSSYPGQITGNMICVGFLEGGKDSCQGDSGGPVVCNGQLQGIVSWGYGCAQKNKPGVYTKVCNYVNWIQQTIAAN

CAAX prenyl protease 2 = biological target: T3, CAAX prenyl protease 2 (Homo sapiens, UniProt Q9Y256); assay: inhibition of Ras-converting CAAX protease Rce1 – biochemical, yeast membranes, quenched-peptide fluorescence, cherry-pick, dose response (AID 588849)
T3 sequence (Q9Y256 whole entry): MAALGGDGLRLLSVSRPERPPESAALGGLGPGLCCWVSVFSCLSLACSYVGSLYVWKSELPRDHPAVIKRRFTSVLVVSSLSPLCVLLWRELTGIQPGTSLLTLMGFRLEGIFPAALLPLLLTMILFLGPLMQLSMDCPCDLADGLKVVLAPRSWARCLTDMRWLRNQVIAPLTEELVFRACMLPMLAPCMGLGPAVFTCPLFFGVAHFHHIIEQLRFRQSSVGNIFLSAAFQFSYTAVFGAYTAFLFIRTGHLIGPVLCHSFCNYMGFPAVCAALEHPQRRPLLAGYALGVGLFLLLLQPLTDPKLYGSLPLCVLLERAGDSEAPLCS

Cytochrome P450 3A4 = Cytochrome P450 3A4 (Homo sapiens, UniProt P08684);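 also: CYP3A4 tested as one member of a cytochrome P450 panel screen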
Cytochrome P450 3A4, sequence (P08684 whole entry): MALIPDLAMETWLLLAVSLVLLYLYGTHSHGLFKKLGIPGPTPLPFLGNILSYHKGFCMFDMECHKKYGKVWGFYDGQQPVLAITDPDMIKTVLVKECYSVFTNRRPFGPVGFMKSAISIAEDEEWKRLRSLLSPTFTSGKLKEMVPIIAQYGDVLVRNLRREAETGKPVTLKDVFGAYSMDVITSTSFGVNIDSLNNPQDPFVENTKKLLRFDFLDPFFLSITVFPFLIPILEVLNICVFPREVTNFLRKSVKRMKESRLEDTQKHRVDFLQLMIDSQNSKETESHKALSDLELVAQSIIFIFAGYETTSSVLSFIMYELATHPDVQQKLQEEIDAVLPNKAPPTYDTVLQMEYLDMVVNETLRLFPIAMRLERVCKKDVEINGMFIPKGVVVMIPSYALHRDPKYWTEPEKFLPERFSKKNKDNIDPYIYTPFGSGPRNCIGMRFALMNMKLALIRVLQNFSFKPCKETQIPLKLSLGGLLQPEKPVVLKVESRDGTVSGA

CAAX prenyl protease 1 = biological target: T4, CAAX prenyl protease 1 (Saccharomyces cerevisiae S288c, UniProt P47154); assay: yeast CAAX protease Ste24 inhibition – biochemical, S. cerevisiae, plate reader, cherry-pick, dose response (AID 488815)
T4 sequence (P47154 whole entry): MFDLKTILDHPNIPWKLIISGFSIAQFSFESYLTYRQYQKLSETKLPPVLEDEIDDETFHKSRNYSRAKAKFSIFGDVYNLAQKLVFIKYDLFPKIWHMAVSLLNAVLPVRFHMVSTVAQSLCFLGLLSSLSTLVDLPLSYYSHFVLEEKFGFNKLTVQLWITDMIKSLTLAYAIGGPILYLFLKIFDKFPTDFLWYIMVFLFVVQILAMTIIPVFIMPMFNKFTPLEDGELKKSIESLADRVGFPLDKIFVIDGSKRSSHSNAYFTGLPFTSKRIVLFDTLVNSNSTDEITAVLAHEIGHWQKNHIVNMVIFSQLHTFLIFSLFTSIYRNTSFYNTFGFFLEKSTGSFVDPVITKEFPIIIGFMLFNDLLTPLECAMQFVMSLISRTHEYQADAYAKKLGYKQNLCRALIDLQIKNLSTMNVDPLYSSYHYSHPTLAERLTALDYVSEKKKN

[5] = biological target: Eukaryotic translation initiation factor 4E (Mus musculus, UniProt P63073); assay: blockers of eIF4G binding by eIF4E – biochemical, TR-FRET, dose response (AID 855); type: functional;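 also: potency for disrupting eIF4E binding to eIF4GI seen as loss of FRET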
Eukaryotic translation initiation factor 4E, sequence (P63073 whole entry): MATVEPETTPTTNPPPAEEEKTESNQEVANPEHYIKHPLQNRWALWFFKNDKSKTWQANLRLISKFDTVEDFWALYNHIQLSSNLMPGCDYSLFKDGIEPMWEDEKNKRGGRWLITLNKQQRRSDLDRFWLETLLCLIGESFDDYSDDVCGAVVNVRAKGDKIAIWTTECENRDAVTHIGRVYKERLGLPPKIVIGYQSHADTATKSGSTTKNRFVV

[6] = biological target: T5, Histone-lysine N-methyltransferase NSD2 (Homo sapiens, UniProt O96028); type: biochemical
T5 sequence (O96028 whole entry): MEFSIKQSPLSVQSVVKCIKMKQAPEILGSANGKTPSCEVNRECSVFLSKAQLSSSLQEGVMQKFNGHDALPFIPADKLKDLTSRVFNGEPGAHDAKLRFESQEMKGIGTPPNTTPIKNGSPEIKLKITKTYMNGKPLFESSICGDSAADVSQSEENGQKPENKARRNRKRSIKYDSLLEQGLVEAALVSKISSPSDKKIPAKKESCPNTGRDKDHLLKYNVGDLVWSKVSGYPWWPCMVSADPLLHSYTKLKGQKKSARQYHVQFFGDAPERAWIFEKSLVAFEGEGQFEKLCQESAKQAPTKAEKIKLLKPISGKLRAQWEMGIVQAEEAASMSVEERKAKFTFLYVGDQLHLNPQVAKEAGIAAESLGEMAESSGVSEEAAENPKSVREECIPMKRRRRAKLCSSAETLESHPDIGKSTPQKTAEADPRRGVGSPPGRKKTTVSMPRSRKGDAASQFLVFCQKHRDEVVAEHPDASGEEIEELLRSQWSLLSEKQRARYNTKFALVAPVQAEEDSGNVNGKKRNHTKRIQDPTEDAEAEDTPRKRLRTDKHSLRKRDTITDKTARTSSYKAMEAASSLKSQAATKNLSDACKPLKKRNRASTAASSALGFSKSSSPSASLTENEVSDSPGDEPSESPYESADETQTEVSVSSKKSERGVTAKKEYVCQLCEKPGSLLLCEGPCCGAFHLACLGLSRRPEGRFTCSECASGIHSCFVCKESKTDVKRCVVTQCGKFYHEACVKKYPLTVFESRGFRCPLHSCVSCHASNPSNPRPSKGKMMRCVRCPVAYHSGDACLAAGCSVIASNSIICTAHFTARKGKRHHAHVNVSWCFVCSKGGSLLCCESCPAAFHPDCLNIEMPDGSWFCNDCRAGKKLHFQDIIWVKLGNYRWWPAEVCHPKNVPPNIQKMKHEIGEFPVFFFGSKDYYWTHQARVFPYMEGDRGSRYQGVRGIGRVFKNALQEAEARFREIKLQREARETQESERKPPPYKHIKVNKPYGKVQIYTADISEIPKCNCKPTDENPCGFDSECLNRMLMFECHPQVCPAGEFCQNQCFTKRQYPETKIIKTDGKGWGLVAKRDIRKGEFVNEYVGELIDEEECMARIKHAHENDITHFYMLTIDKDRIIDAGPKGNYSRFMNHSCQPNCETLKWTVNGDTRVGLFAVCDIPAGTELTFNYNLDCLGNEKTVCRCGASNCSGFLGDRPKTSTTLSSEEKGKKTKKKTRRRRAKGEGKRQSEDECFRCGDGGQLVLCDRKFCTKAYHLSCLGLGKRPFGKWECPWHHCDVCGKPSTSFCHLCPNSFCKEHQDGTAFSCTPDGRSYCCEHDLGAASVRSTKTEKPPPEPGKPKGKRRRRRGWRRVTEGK

Protein RecA = biological target: T6, Protein RecA (Mycobacterium tuberculosis, UniProt P9WHJ3); assay: Fluorescence Cell-Free Homogeneous Dose Retest to Identify Inhibitors of RecA-Intein Splicing Activity. [Related pubchem assays (depositor defined):AID2097, AID2223, AID489010, AID492950]; type: functional
T6 sequence (P9WHJ3 whole entry): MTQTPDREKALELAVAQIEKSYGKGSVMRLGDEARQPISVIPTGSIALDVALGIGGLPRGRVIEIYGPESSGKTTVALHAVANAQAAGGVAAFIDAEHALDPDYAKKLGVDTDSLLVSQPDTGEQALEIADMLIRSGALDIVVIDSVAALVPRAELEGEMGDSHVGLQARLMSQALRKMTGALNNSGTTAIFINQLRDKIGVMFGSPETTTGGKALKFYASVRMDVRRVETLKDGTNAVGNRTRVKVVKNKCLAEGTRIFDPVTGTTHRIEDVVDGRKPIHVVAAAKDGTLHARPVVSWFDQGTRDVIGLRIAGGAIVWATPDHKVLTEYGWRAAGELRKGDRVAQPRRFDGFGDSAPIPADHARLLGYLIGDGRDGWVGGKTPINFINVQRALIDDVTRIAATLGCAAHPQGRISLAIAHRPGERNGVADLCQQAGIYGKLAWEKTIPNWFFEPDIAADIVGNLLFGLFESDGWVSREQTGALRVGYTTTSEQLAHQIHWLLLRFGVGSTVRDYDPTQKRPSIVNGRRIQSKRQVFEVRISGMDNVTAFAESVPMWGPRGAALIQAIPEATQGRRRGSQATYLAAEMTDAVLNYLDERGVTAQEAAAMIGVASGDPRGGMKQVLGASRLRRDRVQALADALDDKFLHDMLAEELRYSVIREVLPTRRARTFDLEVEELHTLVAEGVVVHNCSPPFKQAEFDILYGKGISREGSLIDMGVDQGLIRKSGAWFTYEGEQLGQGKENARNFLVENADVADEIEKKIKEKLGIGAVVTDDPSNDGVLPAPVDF

[7] = biological target: T7, Replicative DNA helicase DnaB (Mycobacterium tuberculosis, UniProt P9WMR3); assay: DnaB intein splicing inhibitors, dose response, biochemical, cell-free fluorescence (AID 449749); type: functional
T7 sequence (P9WMR3 whole entry): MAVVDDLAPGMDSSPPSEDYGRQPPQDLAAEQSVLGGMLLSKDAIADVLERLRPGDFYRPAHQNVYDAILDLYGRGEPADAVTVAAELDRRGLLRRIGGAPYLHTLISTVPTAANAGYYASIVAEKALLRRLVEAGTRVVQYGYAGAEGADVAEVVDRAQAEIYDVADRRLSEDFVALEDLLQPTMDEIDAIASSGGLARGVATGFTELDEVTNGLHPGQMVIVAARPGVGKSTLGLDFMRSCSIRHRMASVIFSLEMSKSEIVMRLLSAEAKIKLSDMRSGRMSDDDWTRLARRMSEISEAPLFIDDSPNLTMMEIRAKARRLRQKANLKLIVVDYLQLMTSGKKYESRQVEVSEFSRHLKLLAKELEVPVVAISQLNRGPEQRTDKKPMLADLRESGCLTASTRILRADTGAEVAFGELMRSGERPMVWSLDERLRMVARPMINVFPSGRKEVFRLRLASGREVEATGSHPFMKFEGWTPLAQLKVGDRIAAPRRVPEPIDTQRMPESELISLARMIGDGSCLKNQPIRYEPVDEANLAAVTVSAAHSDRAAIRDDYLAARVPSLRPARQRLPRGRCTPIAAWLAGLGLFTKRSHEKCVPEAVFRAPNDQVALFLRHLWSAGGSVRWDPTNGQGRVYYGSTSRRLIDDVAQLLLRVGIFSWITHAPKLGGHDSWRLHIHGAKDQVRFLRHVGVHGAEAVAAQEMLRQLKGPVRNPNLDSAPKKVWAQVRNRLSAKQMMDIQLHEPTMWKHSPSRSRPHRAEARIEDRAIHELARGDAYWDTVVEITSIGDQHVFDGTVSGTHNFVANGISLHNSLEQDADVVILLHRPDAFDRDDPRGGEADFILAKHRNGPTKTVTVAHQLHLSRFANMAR

SMILES | AC50 (Trypsin) | AC50 (CAAX prenyl protease 2) | AC50 (CAAX prenyl protease 1) | IC50 [5] | also measured
Cc1cc(C)cc(N2C(=O)NC(=O)/C(=C\c3cccn3-c3ccccc3)C2=O)c1 |  |  |  |  | AC50 [1]: 13.8 µM (active); EC50 [2]: 10.3 µM (active); IC50 [3]: > 80 µM (inactive); CC50 [4]: 19.9 µM (active)
CCOc1c2ccc(C(=O)NCc3ccco3)cc2nn1CCOC | 16.5 µM (active) | 12.3 µM (active) | 11.5 µM (active) |  | AC50 (Cytochrome P450 1A2): 15.8 µM (inconclusive); AC50 (Cytochrome P450 3A4): 22.4 µM (inconclusive)
COc1ccc(CNC(=O)c2ccccc2NS(C)(=O)=O)cc1 | 12.4 µM (active) | 11.7 µM (active) | 5.47 µM (active) |  | 
CCN(CC)c1ccc(NC(=O)CCCOc2cccc(C)c2)cc1 |  |  |  | 50 µM (inactive) | 
CN(C)/C=N/c1c(C#N)cnn1-c1ncnc2sc(-c3ccccc3)cc12 | 8.06 µM (active) | 19.1 µM (active) |  |  | 
CC(=O)c1c(C)nc(-c2ccc(Cl)cc2)nc1/N=C/N(C)C |  |  |  | 40 µM (inactive) | AC50 [6]: > 20 µM (inactive); EC50 (Protein RecA): > 380 µM (inactive); AC50 [7]: > 380 µM (inactive)
